According to ChEMBL document CHEMBL3044901, “Synthesis and insecticidal activity of N-oxydihydropyrroles: 4-hydroxy-3-mesityl-5,5-dimethyl derivatives with various substituents at the 1-position” (Biosci Biotechnol Biochem, 2002):

How the values were obtained:
[1] = system: Cucumis sativus; experiment: Phytotoxicity against Cucumis sativus (cucumber) exposed to compound spraying at […] measured 7 days post compound treatment by post-emergence glasshouse test; type: organism-based; settings: in vivo, other, 168 h
[2] = system: Oryza sativa; experiment: Phytotoxicity against Oryza sativa exposed to compound spraying at […] measured 7 days post compound treatment by post-emergence glasshouse test; type: organism-based; settings: in vivo, other, 168 h
[3] = system: Myzus persicae; experiment: Insecticidal activity against Myzus persicae (green peach aphid) infested Brassica campestris stems followed by leaf exposure to test compound spraying assessed as insect mortality at 1 ppm measured 5 days post compound treatment by contact exposure test; type: functional; settings: 120 h
[4] = system: Nilaparvata lugens; experiment: Insecticidal activity against Nilaparvata lugens (brown planthopper) third-instar larvae reared on rice seedlings assessed as insect mortality at 10 ppm measured 5 days post compound treatment by systemic exposure test; type: functional; settings: 120 h
[5] = system: Myzus persicae; experiment: Insecticidal activity against Myzus persicae (green peach aphid) infested Brassica campestris stems followed by leaf exposure to test compound spraying assessed as insect mortality at 10 ppm measured 5 days post compound treatment by contact exposure test; type: functional; settings: 120 h
[6] = system: Myzus persicae; experiment: Insecticidal activity against Myzus persicae (green peach aphid) infested Brassica campestris stems followed by cut stem exposure to test compound assessed as insect mortality at 0.1 ppm measured 5 days post compound treatment by systemic exposure test; type: functional; settings: 120 h
[7] = system: Myzus persicae; experiment: Insecticidal activity against Myzus persicae (green peach aphid) infested Brassica campestris stems followed by cut stem exposure to test compound assessed as insect mortality at 1 ppm measured 5 days post compound treatment by systemic exposure test; type: functional; settings: 120 h
[8] = system: Nilaparvata lugens; experiment: Insecticidal activity against Nilaparvata lugens (brown planthopper) third-instar larvae contacted with rice stems pre-exposed to compound assessed as insect mortality at 1 ppm measured 5 days post insect release by contact exposure test; type: functional; settings: 120 h
[9] = system: Nilaparvata lugens; experiment: Insecticidal activity against Nilaparvata lugens (brown planthopper) third-instar larvae contacted with rice stems pre-exposed to compound assessed as insect mortality at 10 ppm measured 5 days post insect release by contact exposure test; type: functional; settings: 120 h
[10] = system: Nilaparvata lugens; experiment: Insecticidal activity against Nilaparvata lugens (brown planthopper) third-instar larvae reared on rice seedlings assessed as insect mortality at 1 ppm measured 5 days post compound treatment by systemic exposure test; type: functional; settings: 120 h

Row | SMILES | Phytotoxicity [1] [%] | Phytotoxicity [2] [%] | mortality at 1 ppm [3] [%] | mortality at 10 ppm [4] [%] | mortality at 10 ppm [5] [%] | mortality at 0.1 ppm [6] [%] | mortality at 1 ppm [7] [%] | mortality at 1 ppm [8] [%] | mortality at 10 ppm [9] [%] | mortality at 1 ppm [10] [%]
1 | COCCON1C(=O)C(c2c(C)cc(C)cc2C)=C(O)C1(C)C | 60 | 90 | 0 | 90 | 90 | 100 | 100 | 30 | 90 | 90
2 | COCCOCON1C(=O)C(c2c(C)cc(C)cc2C)=C(O)C1(C)C | 100 | 100 | 0 | 100 | 90 | 100 | 100 | 30 | 60 | 30
3 | CSCON1C(=O)C(c2c(C)cc(C)cc2C)=C(O)C1(C)C | 0 | 90 | 0 | 100 | 0 | 30 | 90 | 30 | 30 | 30
4 | Cc1cc(C)c(C2=C(OC(=O)CC(C)(C)C)C(C)(C)N(O)C2=O)c(C)c1 | 0 | 30 | 0 | 90 | 0 | 0 | 0 | 90 | 100 | 60
5 | CON1C(=O)C(c2c(C)cc(C)cc2C)=C(OC(=O)CC(C)(C)C)C1(C)C | 60 | 30 | 0 | 90 | 30 | 0 | 0 | 90 | 90 | 30
6 | Cc1cc(C)c(C2=C(OC(=O)CC(C)(C)C)C(C)(C)N(OCC#N)C2=O)c(C)c1 | 60 | 0 | 0 | 100 | 100 | 0 | 100 | 90 | 100 | 60
7 | COCON1C(=O)C(c2c(C)cc(C)cc2C)=C(OC(=O)CC(C)(C)C)C1(C)C | 90 | 100 | 100 |  | 100 | 100 | 100 | 30 | 100 | 30
8 | CCOCON1C(=O)C(c2c(C)cc(C)cc2C)=C(OC(=O)CC(C)(C)C)C1(C)C | 60 | 0 | 100 | 100 | 100 | 60 | 100 | 100 | 100 | 0
9 | CC(=O)ON1C(=O)C(c2c(C)cc(C)cc2C)=C(OC(=O)CC(C)(C)C)C1(C)C | 0 | 60 | 0 |  | 0 | 0 | 0 | 60 |  | 30
10 | Cc1cc(C)c(C2=C(OC(=O)CC(C)(C)C)C(C)(C)N(OC(=O)C(C)(C)C)C2=O)c(C)c1 | 0 | 0 | 0 |  | 0 | 0 | 0 | 0 |  | 30
11 | Cc1cc(C)c(C2=C(OC(=O)CC(C)(C)C)C(C)(C)N(OC(=O)CC(C)(C)C)C2=O)c(C)c1 | 0 | 0 | 0 |  | 60 | 0 | 0 | 0 |  | 0
12 | COC(=O)ON1C(=O)C(c2c(C)cc(C)cc2C)=C(OC(=O)CC(C)(C)C)C1(C)C | 0 | 60 | 0 |  | 0 | 0 | 0 | 60 |  | 30
13 | Cc1cc(C)c(C2=C(OC(=O)CC(C)(C)C)C(C)(C)N(OS(C)(=O)=O)C2=O)c(C)c1 | 0 | 0 | 0 |  | 0 | 0 | 0 | 0 |  | 0
14 | Cc1cc(C)c(C2=C(OC(=O)CC(C)(C)C)C(C)(C)N(OC(=O)N(C)C)C2=O)c(C)c1 | 0 | 0 | 0 |  | 0 | 0 | 0 | 0 |  | 30
15 | CON1C(=O)C(c2c(C)cc(C)cc2C)=C(O)C1(C)C | 60 | 100 | 0 | 100 | 60 | 0 | 100 | 30 | 90 | 100
16 | CCON1C(=O)C(c2c(C)cc(C)cc2C)=C(O)C1(C)C | 0 | 100 | 0 | 90 | 0 | 60 | 100 | 60 | 100 | 60
17 | CCCON1C(=O)C(c2c(C)cc(C)cc2C)=C(O)C1(C)C | 0 | 100 | 0 | 100 | 30 | 90 | 90 | 30 | 100 | 60
18 | Cc1cc(C)c(C2=C(O)C(C)(C)N(OC(C)C)C2=O)c(C)c1 | 0 | 100 | 0 | 90 | 0 | 0 | 60 | 30 | 60 | 30
19 | C=CCON1C(=O)C(c2c(C)cc(C)cc2C)=C(O)C1(C)C | 0 | 100 | 0 | 100 | 100 | 60 | 100 | 60 | 90 | 60
20 | C#CCON1C(=O)C(c2c(C)cc(C)cc2C)=C(O)C1(C)C | 0 | 100 | 0 | 90 | 90 | 60 | 100 | 60 | 100 | 90
21 | Cc1cc(C)c(C2=C(O)C(C)(C)N(O)C2=O)c(C)c1 | 60 | 90 | 0 |  | 60 | 0 | 100 | 0 | 0 | 0
22 | Cc1cc(C)c(C2=C(O)C(C)(C)N(OCC3CCCCC3)C2=O)c(C)c1 | 0 | 60 | 0 | 60 | 0 | 0 | 60 | 30 | 90 | 60
23 | Cc1cc(C)c(C2=C(O)C(C)(C)N(OCc3ccccc3)C2=O)c(C)c1 | 0 | 30 | 0 | 100 | 0 | 0 | 0 | 30 | 0 | 30
24 | COCON1C(=O)C(c2c(C)cc(C)cc2C)=C(O)C1(C)C | 90 | 100 | 0 | 100 | 100 | 100 | 100 | 60 | 100 | 60
